Columns and labels:
Experiment in all cases: relative viability (nuclei count vs DMSO), 5 days (fraction); higher = more cells survive
[1] = compound: CCOc1cc2ncc(C#N)c(Nc3ccc(OCc4ccccn4)c(Cl)c3)c2cc1NC(=O)/C=C/CN(C)C [Neratinib] + Nc1ncn([C@H]2C[C@H](O)[C@@H](CO)O2)c(=O)n1 [Decitabine] (partner 2 µM)
In short: (§1)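 Each reported value is a median over duplicate plates. It expresses relative viability: treated-well nuclei count divided by vehicle-well nuclei count. Lung cancer cell lines in 1536-well plates were dosed by pin tool a day after seeding, alone with one drug or with a fixed anchor-drug dose plus five library-drug doses (not always all listed) in √10 steps, and nuclei were counted after 5 days.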

[2] = compound: CCOc1cc2ncc(C#N)c(Nc3ccc(OCc4ccccn4)c(Cl)c3)c2cc1NC(=O)/C=C/CN(C)C [Neratinib] + C[C@@H](Oc1cc(-c2cnn(C3CCNCC3)c2)cnc1N)c1c(Cl)ccc(F)c1Cl [Crizotinib] (partner 1 µM)
In short: as §1

[3] = compound: CCOc1cc2ncc(C#N)c(Nc3ccc(OCc4ccccn4)c(Cl)c3)c2cc1NC(=O)/C=C/CN(C)C [Neratinib] + Cc1cc(Nc2cc(N3CCN(C)CC3)nc(Sc3ccc(NC(=O)C4CC4)cc3)n2)n[nH]1 [Tozasertib] (partner 0.1 µM)
In short: as §1

[4] = compound: CCOc1cc2ncc(C#N)c(Nc3ccc(OCc4ccccn4)c(Cl)c3)c2cc1NC(=O)/C=C/CN(C)C [Neratinib] + CS(=O)(=O)CCNCc1ccc(-c2ccc3ncnc(Nc4ccc(OCc5cccc(F)c5)c(Cl)c4)c3c2)o1 [Lapatinib] (partner 2 µM)
In short: as §1

Cell Line | relative viability ([1]; first compound 0.01 µM) | relative viability ([1]; first compound 0.03162 µM) | relative viability ([1]; first compound 0.1 µM) | relative viability ([1]; first compound 0.3162 µM) | relative viability ([1]; first compound 1 µM) | relative viability ([2]; first compound 0.01 µM) | relative viability ([2]; first compound 0.03162 µM) | relative viability ([2]; first compound 0.1 µM) | relative viability ([2]; first compound 0.3162 µM) | relative viability ([2]; first compound 1 µM) | relative viability ([3]; first compound 0.01 µM) | relative viability ([3]; first compound 0.03162 µM) | relative viability ([3]; first compound 0.1 µM) | relative viability ([3]; first compound 0.3162 µM) | relative viability ([3]; first compound 1 µM) | relative viability ([4]; first compound 0.01 µM) | relative viability ([4]; first compound 0.03162 µM) | relative viability ([4]; first compound 0.1 µM) | relative viability ([4]; first compound 0.3162 µM) | relative viability ([4]; first compound 1 µM)
NCI-H23 | 0.325 | 0.298 | 0.289 | 0.404 | 0.264 | 0.697 | 0.572 | 0.413 | 0.486 | 0.27 | 0.371 | 0.342 | 0.33 | 0.298 | 0.215 | 1.05 | 0.932 | 1.09 | 1.02 | 0.762
NCI-H322M | 0.678 | 0.643 | 0.646 | 0.558 | 0.39 |  | 1.02 | 0.791 | 0.659 | 0.291 | 0.502 | 0.47 | 0.451 | 0.33 | 0.284 | 0.587 | 0.569 | 0.522 | 0.567 | 0.449
NCI-H358 | 0.205 | 0.186 |  | 0.129 | 0.117 | 0.65 | 0.409 | 0.391 | 0.161 | 0.182 | 0.0993 | 0.0867 | 0.0981 | 0.0713 | 0.0842 | 0.502 | 0.47 | 0.42 | 0.405 | 0.237
NCI-H460 | 0.559 | 0.527 | 0.522 | 0.459 | 0.449 | 1.2 | 0.743 |  | 0.641 | 0.355 | 0.587 | 0.546 | 0.378 | 0.268 | 0.0381 | 1.15 | 1.38 |  | 0.921 | 0.557
NCI-H520 | 0.604 | 0.547 |  |  | 0.46 | 0.908 | 0.929 | 0.773 | 0.689 | 0.429 | 0.455 | 0.418 | 0.401 | 0.433 | 0.33 | 1 | 1 | 0.858 |  | 0.682
NCI-H596 | 1.88 | 1.1 | 1 | 0.986 | 0.863 | 0.944 | 1.09 | 1.04 | 0.903 | 0.861 | 0.862 | 0.961 | 0.736 | 0.857 | 0.601 | 1.2 | 1.06 |  | 1.13 | 0.859
NCI-H647 | 0.438 | 0.453 | 0.364 | 0.358 | 0.371 | 1.21 | 0.978 | 0.852 | 0.835 | 0.427 | 0.281 | 0.333 | 0.155 | 0.195 | 0.174 | 0.989 | 1.27 | 0.857 | 1 | 0.802
NCI-H650 | 0.321 | 0.347 | 0.328 | 0.326 | 0.345 | 0.866 | 0.699 | 0.78 |  | 0.421 | 0.749 | 0.829 | 0.654 | 0.668 | 0.583 | 1.04 | 1.02 | 0.996 |  | 1.04
NCI-H661 |  | 0.513 | 0.38 | 0.331 | 0.337 | 1.06 | 0.983 | 0.989 | 0.828 | 0.343 | 0.374 | 0.322 | 0.323 | 0.37 | 0.308 | 0.563 | 0.45 | 0.431 | 0.427 | 0.312
NCI-H727 | 0.897 | 0.846 |  | 0.796 | 0.717 | 0.844 | 1.02 |  | 0.597 | 0.423 | 0.675 | 0.535 | 0.5 | 0.53 | 0.34 | 0.898 | 0.994 |  | 0.928 | 0.786
NCI-H838 | 0.459 | 0.514 | 0.456 | 0.463 | 0.464 | 0.995 | 0.812 | 0.833 | 0.67 | 0.476 | 0.274 | 0.291 | 0.241 | 0.267 | 0.22 | 1.11 | 1.2 | 0.949 | 0.947 | 0.468
NCI-H1355 | 0.343 | 0.326 | 0.337 | 0.372 | 0.341 | 1.12 | 1.11 | 0.949 | 0.846 | 0.31 | 0.541 | 0.548 | 0.482 | 0.436 | 0.282 | 1.09 | 1.06 | 1.04 | 0.984 | 0.938
NCI-H1437 | 0.539 | 0.521 | 0.582 | 0.58 | 0.661 | 1.04 | 0.853 | 0.897 | 0.789 | 0.822 | 0.43 | 0.439 | 0.296 | 0.38 | 0.328 | 0.911 | 0.881 | 0.771 | 0.721 | 0.703
NCI-H1650 | 0.398 | 0.474 | 0.474 | 0.472 | 0.613 | 0.922 | 1.03 | 0.705 | 0.568 | 0.623 | 0.362 | 0.359 | 0.292 | 0.31 | 0.204 |  | 0.66 | 0.736 | 0.84 | 0.742
NCI-H1651 | 0.63 | 0.663 | 0.391 | 0.585 | 0.543 | 0.927 | 0.944 | 0.86 | 0.846 | 0.564 | 0.743 | 0.792 | 0.543 | 0.58 | 0.312 | 0.881 | 1.01 | 0.77 |  | 0.68
NCI-H1666 |  |  | 0.747 | 0.612 | 0.604 | 1.29 | 1.13 | 0.579 | 0.595 | 0.566 | 0.615 | 0.563 | 0.538 |  | 0.541 | 1.02 | 0.769 | 0.546 | 0.673 | 0.596
NCI-H1734 | 0.539 | 0.579 |  | 0.54 | 0.481 | 0.838 | 0.722 | 0.535 | 0.646 | 0.446 | 0.231 | 0.281 | 0.168 | 0.266 | 0.212 | 1.28 | 1.1 | 0.909 | 1.06 | 0.829
